Results taken from patent US12239661B2, “Methods and compositions for treating undesired implanted tissue filler” (priority 2019, dated 2025).

Key:
[1] = Electron microscopy (SEM) of filler particles isolated from test sites (Example 1)
Procedure: EM analysis is used, for example, to analyze morphology and the particle size distribution of Calcium Hydroxyapatite (CaHA) particles in tissue integrated particles. […] The biopsy material underwent an enzymatic digestion with protease (Trypsin without EDTA, for […], at 37° C.) after fixation in 10% neutral buffered formalin (NBF). Digested sample was centrifuged, and microscopy samples of the supernatant as well as the pellet were prepared and subjected to EM analysis at room temperature.
Samples were analyzed using a Scanning Electron Microscope (SEM) (Phenom Pure G3, ThermoFisher, with Phenom Pro Suite application system, ImageJ (version 1.51j8) software and OriginPro 2018G (64-bit) SR1 b9.5.1.195 software for analysis and data processing). To evaluate the changes in CaHA microparticle characteristics the samples were analyzed with the Scanning Electron Microscopy (SEM) and evaluated for morphology as well as for the size and shape of the material. Statistical analysis of particle size distribution (PSD) would show changes of the material.
SEM images were taken from three fractions per sample to determine the particle- and volume-weighted size distributions. Up to 400 SEM images per fraction were taken at a magnification of ×500 and further processed by automated image analyzing software ImageJ (version 1.51j8). Image processing took place for every fraction image to determine selected parameters. e.g., Feret diameter and aspect ratio (D-ratio).

[2] = Semi-quantitative histopathologic analysis of injection sites (Example 1); conditions: mean score, day 7
Procedure: After complete fixation in 10% NBF and micro-CT analysis, the 30 test sites and the TO site, were cut into five blocks. The blocks were decalcified for 48 hours with formic acid and then dehydrated in alcohol solutions of increasing concentration, cleared in xylene and embedded in paraffin. […] Finally, the blocks were placed in HCl for 15 min and the blocks could then be cut to obtain slides for analysis.
The section was stained with safranin-hematoxylin-cosin (SHE). The same procedure was used for the preparation of the TO site used for structural characterization and evaluation of the degradation.
Qualitative and semi-quantitative histopathologic evaluation of the local tissue effects and the inflammatory response at injection sites was conducted according using standard methods.
Evaluation of local tissue effects was based on the qualitative and semi-quantitative histopathologic evaluation: mean score comparison of the semi-quantitative parameters and comparison of the qualitative histopathologic findings.

[3] = Quantitative histomorphometric analysis of injection sites (Example 1); assay type: in vivo, Swine (Sus scrofa domesticus); conditions: injected area, day 7, mean
Procedure: Histomorphometric analysis was conducted on the 31 sections. Each section was analyzed with a color image analyzing system (Tribvn, France, CALOPIX version 3.2.0) to perform a semi-automatic analysis.
A Test Area was defined in a limited area where the print of the granules of the associated material was clear. This area was defined to evaluate the average area and diameter of each microsphere. A Test Area had to contain between 100 and 300 clearly defined granules to be considered as representative. FIG. 2 illustrates a Test Area in a section.
The injected area was the entire area where material was detected on the slide. The Test Area was part of the injected area.
Quantitative measurements were performed either in the Test Area or in the entire injected area. […]
Implant Area (μm^2) (Test Area): the surface area of granules measured in the Test Area (including any Lacunae Area).
Implant Area (mm^2) (Injected Area): the surface of granules was measured in the entire injected area (including any Lacunae Area). […]
Lacunae Area (mm^2) (Injected Area): the surface of the “Lacunae” Area was measured as defined by the optically empty spaces corresponding to merged granules (no distinct limits between several granules).

[4] = In vivo CT of filler nodule volume, density and 3D shape after test solutions 0-8 (Example 3)
Procedure: One hour after filler injections (T=1 h), 1.5 mL of selected solutions (Table 5, solutions 0-8, test items, solution 0 is normal saline and not hyperosmotic) were injected each into 9 dermal filler nodules in the right flank (ventral area).
A total of 7 CT-scans were performed at 1 h 15, 2 h, 4 h, 1 day (24 h), 3, 7 and 14 days after injection of the dermal filler. The clinical state of each animal is assessed once a week by body weight measurement and clinical observations.
The 10 SC injections of dermal filler on Day 0 were performed in the ventral area, (five nodules on each flank of the ventral area) for each pig. For each SC nodule, a theoretical volume of 500 μl was administered. One hour (±5 min) after injection of dermal filler, SC injection of the different solutions (prepared the day before) were performed into nine (9) nodules of dermal. For each SC nodule, a theoretical volume of 1.5 mL of test solution was administered.
The X-ray computed tomography acquisitions were performed with the Computed Tomography Scanner BrightSpeed 16 (General Electric). In order to measure the volume and the mean density and to visualize the 3D shape of the dermal filler (Radiesse® filler with or without test solution) injected, in vivo CT-scans were performed on Day 0: 1 h 15 (±10 min), 2 h (±15 min) and 4 h (±20 min), on Day 1 (24 h+1 h), Day 3, Day 7 and Day 14.
During CT acquisition on Day 0, the pigs received an IM injection of anesthesia. The animals were maintained under anesthesia until the CT acquisition at T=2 h (2 h after dermal filler injection session). Between these CT acquisitions, the animals were under surveillance in the recovery room on a heating mat with fluidotherapy. At the end of the CT acquisition at T=2 h, the pigs received a tattoo around each injected site. During the CT acquisitions at T=4 h and on Days 1, 3, 7 and 14, pigs received an IM injection of anesthesia. For the CT-scans, animals were positioned in dorsal recumbency and acquisitions were centered on the injection sites. The parameters of the CT-scan are described in Table 5.
The CT acquisition was analyzed with the software Avizo version 9.2.0. The objective of this analysis was to assess the degradation over time of the dermal filler injected by SC route after injection of different test solutions.
An image segmentation processing was performed on each CT acquisition. First, a manual pre-segmentation was performed around each nodule in order to roughly isolate the voxels corresponding to dermal filler product, which defined a Region of Interest (ROI). Second, an automatic segmentation was applied on the previously defined ROI using a global grey level thresholding procedure.
On day 0, a farm pig received ten (10) SC injections of Radiesse® dermal filler 0.5 mL (ventral area) (10 nodules in total). One hour after filler injections (T=1 h), 1.5 mL of one of eight test hyperosmotic solutions (1-8 solutions, Table 5) was injected at an injection site. One injection site was untreated and one injection site was treated with normal saline (0.9% wt/v NaCl).

[5] = particle size distribution by EM, day 7
[6] = Example 3, mean, listed as Normal Saline (sol 0)

[Cl-].[Na+] [sol 0, Sodium chloride]
particle degradation (change in particle size or surfaces) by EM ([1]; day 7): no indication of particle degradation
Mean diameter ([1]; filler particles by EM, seven days after filler injection): 28.8 μm
25-45 μm [1, 5]: 93.2 wt %
<25 μm [1, 5]: 1.4 wt %
>45 μm [1, 5]: 5.4 wt %
D-ratio ([1]; shape index, 1=round, EM, day 7): 0.8
AM Degradation [2]: 1.0
Cell or Tissue Degeneration [2]: 0.0
Encapsulation [2]: 0.0
Fatty Infiltrate [2]: 0.0
Fibrin [2]: 1.7
Fibroblasts [2]: 2.0
Fibrosis [2]: 0.0
Giant Cells [2]: 2.0
Hemorrhage [2]: 1.1
Lymphocytes [2]: 1.3
Macrophages [2]: 2.4
Necrosis [2]: 0.1
Neovascularization [2]: 1.0
Plasma Cells [2]: 0.0
Polymorphonuclear Cells [2]: 1.0
Tissue Ingrowth [2]: 2.5
Tissue Integration [2]: 2.5
Implant area [3]: 19.2 mm^2
Change in Volume as percent of Injected Volume, Day 14/15 ([4]; Example 3 (Day 14), mean, listed as Normal Saline (sol 0)): 187.72%
Change in Volume as percent of Injected Volume, Day 0 + 1 h 15 ([4]; Example 3, mean, 1.5 mL solution into 500 μl nodule, listed as Normal Saline (sol 0)): 155.02%
Change in Volume as percent of Injected Volume, Day 0 + 2 h [4, 6]: 159.42%
Change in Volume as percent of Injected Volume, Day 0 + 4 h [4, 6]: 182.97%
Change in Volume as percent of Injected Volume, Day 1 [4, 6]: 209.66%
Change in Volume as percent of Injected Volume, Day 3 [4, 6]: 215.48%
Change in Volume as percent of Injected Volume, Day 7 [4, 6]: 212.85%
effect on volume at the filler injection site ([4]; after 7 and 14 days, vs untreated, listed as normal saline): does not produce significant decreased volume
